{
  "source": "patent US11945826B2",
  "about": "“Hydroxypyridoxazepines as NRF2 activators” (GLAXOSMITHKLINE INTELLECTUAL PROPERTY DEVELOPMENT LIMITED, priority 2019, dated 2024)",
  "tested_on": "murine TAC model",
  "experiment": "Mouse Transverse Aortic Constriction (TAC) Left Ventricular Pressure Overload Model",
  "type": "in vivo, C57BLK/6J mice",
  "details": "10-week mouse TAC, Example 1 at 1, 3, 10 mg/kg/d, Example B at 100 mg/kg/d",
  "from_the_text": "Male C57BLK/6J mice (10-12 weeks old) were individually housed and acclimated to a standard powdered rodent diet for 1-3 days. Water was offered ad libitum throughout the study. Mice were initially anesthetized in a chamber using an 3% isoflurane with oxygen (1.0 L/min), and then maintained at 1.5% via nose cone (without intubation). A small incision (˜5 mm) was made just left of midline and just above the rib cage at the level of the suprasternal notch. The muscle tissue was retracted to expose the area above the pleural cavity. The lobes of the thymus were separated and retracted to expose the aortic arch. Fine surgical forceps with blunted tips were used to expose a region above and below the aorta. A micro blunt hook tied with 7-0 silk surgical suture was looped under the aorta and the suture pulled through. The suture was tied-off against a small piece of blunted 27 G needle and the needle was then removed creating the aortic constriction (a 60-70% constriction of the lumen). The incision was closed using 6-0 silk suture for the muscle layer, then the skin with Medbond. The sham procedure was identical without ligation of aorta. Depending on the individual study designs, drug administration began either on the day of surgery, or 1-2 weeks after surgery (detailed in figure legends) and continued until the end of study. Compounds were administered in the mouse chow unless otherwise noted in FIG. 12 legends. TAC study duration was either 6 weeks or 10 weeks in duration. All TAC study endpoints were collected at the end of study. Following heart dissections, samples were either snap frozen in liquid nitrogen and stored at −80° C. or placed in 10% neutral buffered formalin until analysis.\nEchocardiography: For mouse TAC studies, echocardiography was performed on a Vevo 2100 high frequency imaging system. Animals were anesthetized with 2-3% isoflurane and sedation maintained with 1% isoflurane with animals on a heating pad. B-mode imaging of three cardiac cycles was used to assess ejection fraction (EF), end diastolic volume (EDV), end systolic volume (ESV), LV mass, and heart rate. ECG was used to measure heart rate during the echocardiography procedure.\nNADPH dehydrogenase [quinone]-1 (NQO1) activity: Left ventricular (LV) tissue NQO1 activity was determined using an NQO1 assay kit per manufacturer's protocol (Abcam, Cambridge MA)\nThe KEAP1 blockers/Nrf2 activators, (R)-3-(1,4-dimethyl-1H-benzo[d][1,2,3]triazol-5-yl)-3-(3-(((R)-2-ethyl-7-hydroxy-2,3-dihydropyrido[2,3-f][1,4]oxazepin-4(5H)-yl)methyl)-4-methylphenyl)propanoic acid, hydrochloride, or a tautomer thereof (Example 1) (in dose-response) and (S)-3-(1,4-dimethyl-1H-benzo[d][1,2,3]triazol-5-yl)-3-(3-(((R)-2-ethyl-2,3-dihydropyrido[3,4-f][1,4]oxazepin-4(5H)-yl)methyl)-4-methylphenyl)-2,2-dimethylpropanoic acid (Example B) were evaluated in a 10-week mouse TAC model of severe hemodynamic stress.\nFIG. 12 depicts the effect of the KEAP1-kelch domain blockers/Nrf2 activators (R)-3-(1,4-dimethyl-1H-benzo[d][1,2,3]triazol-5-yl)-3-(3-(((R)-2-ethyl-7-hydroxy-2,3-dihydropyrido[2,3-f][1,4]oxazepin-4(5H)-yl)methyl)-4-methylphenyl)propanoic acid, hydrochloride, or a tautomer thereof (Compound of Example 1) and (S)-3-(1,4-dimethyl-1H-benzo[d][1,2,3]triazol-5-yl)-3-(3-(((R)-2-ethyl-2,3-dihydropyrido[3,4-f][1,4]oxazepin-4(5H)-yl)methyl)-4-methylphenyl)-2,2-dimethylpropanoic acid (Compound B) on cardiac function, remodeling, and NQO1 enzyme activity in the murine 10-week TAC model. All compounds were dosed in chow beginning 2-weeks after TAC. […]",
  "data": [
    {"compound": "CC[C@@H]1CN(Cc2cc([C@@H](CC(=O)O)c3ccc4c(nnn4C)c3C)ccc2C)Cc2nc(O)ccc2O1", "note": "[Example 1, (R)-3-(1,4-dimethyl-1H-benzo[d][1,2,3]triazol-5-yl)-3-(3-(((R)-2-ethyl-7-hydroxy-2,3-dihydropyrido[2,3-f][1,4]oxazepin-4(5H)-yl)methyl)-4-methylphenyl)propanoic acid]", "values": [
      {"measurement": "cardiac function as assessed by ejection fraction", "setting": "daily in chow for eight weeks from 2 weeks after TAC", "result": "full normalization of cardiac function"},
      {"measurement": "NAD(P)H quinone oxidoreductase 1 (NQO1) in the LV", "setting": "daily in chow for eight weeks", "result": "significant dose-related elevations"},
      {"measurement": "cardiac hypertrophy (left ventricular mass)", "setting": "daily in chow for eight weeks", "result": "did not influence cardiac hypertrophy"},
      {"measurement": "unloading the heart (blood pressure) or heart rate", "setting": "daily in chow for eight weeks", "result": "nor did the ejection fraction change occur by unloading the heart (i.e., lowering blood pressure) or increasing the heart rate"}
    ]}
  ]
}
